row,melting point [°C],Compound
1,48,"C=C(C(=O)OC)[C@@H](O)c1ccccc1 (single isomer, unassigned)"
2,51,"C=C(C(=O)OC)C(O)c1ccccc1 (single isomer, unassigned)"

# — patent publication US7091354B2, “Processes for the preparation of peripheral opioid antagonist compounds and intermediates thereto” (Adolor Corporation, priority 2002, dated 2006)
